Reference: ChEMBL document CHEMBL4837270, “2-Trifluoromethylthiazole-5-carboxamides: Analogues of a Stilbene-Based Anti-HIV Agent that Impact HIV mRNA Processing” (ACS Med Chem Lett, 2021)
Activity calls are given as the source filed them. The rule behind the calls is not given here.

Tests used:
[1] = Cytotoxicity against human CEM-GXR cells infected with HIV1 NL4-3 assessed as cell viability measured after 3 days by Flowcytometry assay; type: cell-based; conditions: 72 h
[2] = tested on: Human immunodeficiency virus 1; assay: Antiviral activity against HIV1 NL4-3 infected in human CEM-GXR cells assessed as inhibition of viral replication at 1.25 to 10 uM measured after 3 days by Flowcytometry assay; type: functional, organism-based; conditions: dose 1.25-10 µM, time 3.0 day
[3] = Cytotoxicity against human CEM-GXR cells infected with HIV1 NL4-3 assessed as cell viability at 1.25 to 10 uM measured after 3 days by Flowcytometry assay; type: cell-based; conditions: 72 h, dose 1.25-10 µM, time 3 day
[4] = tested on: Human immunodeficiency virus; assay: Antiviral activity against HIV; type: functional, organism-based; conditions: Human immunodeficiency virus 1
[5] = Cytotoxicity against human CEM-GXR cells infected with wild type HIV1 97USSN54 assessed as cell viability measured after 72 hrs by Flow cytometry assay; type: cell-based
[6] = tested on: Human immunodeficiency virus 1; assay: Antiviral activity against antiretroviral-resistant HIV1 443 harboring reverse transcriptase K103N/D67N/K70R/Y115F/Q151M/M184V/K219Q mutant infected in human CEM-GXR cells assessed as inhibition of viral replication measured after 3 days by Flowcytometry assay; type: functional, organism-based; conditions: Human immunodeficiency virus 1, 443, CEM-GXR, 72 h
[7] = tested on: Human immunodeficiency virus 1; assay: Antiviral activity against HIV1 NL4-3 infected in human CEM-GXR cells assessed as inhibition of viral replication measured after 3 days by Flowcytometry assay; type: functional, organism-based; conditions: Human immunodeficiency virus 1, NL4-3, CEM-GXR, 72 h
[8] = tested on: Human immunodeficiency virus 1; assay: Antiviral activity against antiretroviral-resistant HIV1 2948 harboring protease G48V/L90M mutant infected in human CEM-GXR cells assessed as inhibition of viral replication measured after 3 days by Flowcytometry assay; type: functional, organism-based; conditions: Human immunodeficiency virus 1, 2948, CEM-GXR, 72 h
[9] = Cytotoxicity against human CEM-GXR cells infected with wild type HIV1 11845 harboring […] G140S/Q148H mutant assessed as cell viability measured after 72 hrs by Flow cytometry assay; type: cell-based
[10] = Cytotoxicity against human CEM-GXR cells infected with wild type HIV1 2948 harboring protease G48V/L90M mutant assessed as cell viability measured after 72 hrs by Flow cytometry assay; type: cell-based
[11] = Therapeutic index, ratio of CC50 for human CEM-GXR cells infected with HIV1 11845 harboring integrase G140S/Q148H mutant to EC50 for HIV1 11845 harboring integrase G140S/Q148H mutant infected in human CEM-GXR cells; type: toxicity, cell-based; conditions: read-out: TI
[12] = tested on: Human immunodeficiency virus 1; assay: Antiviral activity against wild type HIV1 NL4-3 infected in human CEM-GXR cells assessed as inhibition of viral replication measured after 3 days by Flowcytometry assay; type: functional, organism-based; conditions: Human immunodeficiency virus 1, NL4-3, CEM-GXR, 72 h
[13] = tested on: Human immunodeficiency virus 1; assay: Antiviral activity against HIV1 infected in HeLa cells assessed as decrease of multiply spliced RNA levels at 1.25 uM measured after 24 hrs by RT-qPCR method; type: functional, organism-based
[14] = tested on: Human immunodeficiency virus 1; assay: Anti-HIV activity against HIV1 provirus infected in HeLa cells assessed as reduction of GAG production in presence of Doxycycline measured after 24 hrs by GFP flourescence based plate reader method; type: functional, organism-based
[15] = Cytotoxicity against human CEM-GXR cells infected with wild type HIV1 443 harboring reverse transcriptase K103N/D67N/K70R/Y115F/Q151M/M184V/K219Q mutant assessed as cell viability measured after 72 hrs by Flow cytometry assay; type: cell-based
[16] = Therapeutic index, ratio of CC50 for human CEM-GXR cells infected with wild type HIV1 97USSN54 to EC50 for wild type HIV1 97USSN54 infected in human CEM-GXR cells; type: toxicity, cell-based; conditions: read-out: TI
[17] = tested on: Human immunodeficiency virus 1; assay: Antiviral activity against wild type HIV1 97USSN54 infected in human CEM-GXR cells assessed as inhibition of viral replication measured after 3 days by Flowcytometry assay; type: functional, organism-based; conditions: Human immunodeficiency virus 1, 97USSN54, CEM-GXR, 72 h
[18] = Therapeutic index, ratio of CC50 for human CEM-GXR cells infected with wild type HIV1 NL4-3 to EC50 for wild type HIV1 NL4-3 infected in human CEM-GXR cells; type: toxicity, cell-based; conditions: read-out: TI
[19] = tested on: Human immunodeficiency virus 1; assay: Antiviral activity against antiretroviral-resistant HIV1 11845 harboring integrase G140S/Q148H mutant infected in human CEM-GXR cells assessed as inhibition of viral replication measured after 3 days by Flowcytometry assay; type: functional, organism-based; conditions: Human immunodeficiency virus 1, 11845, CEM-GXR, 72 h
[20] = tested on: Human immunodeficiency virus 1; assay: Antiviral activity against HIV1 infected in HeLa cells assessed as decrease of multiply spliced RNA levels at 5 uM measured after 24 hrs by RT-qPCR method; type: functional, organism-based
[21] = tested on: Human immunodeficiency virus 1; assay: Antiviral activity against antiretroviral-resistant HIV1 MVC-res harboring envelope V3 loop A19T/L20F/T22A/E25D/I26V mutant infected in human CEM-GXR cells assessed as inhibition of viral replication measured after 3 days by Flowcytometry assay; type: functional, organism-based
[22] = Therapeutic index, ratio of CC50 for human CEM-GXR cells infected with HIV1 MVC-res harboring envelope V3 loop A19T/L20F/T22A/E25D/I26V mutant to EC50 for HIV1 MVC-res harboring envelope V3 loop A19T/L20F/T22A/E25D/I26V mutant infected in human CEM-GXR cells; type: toxicity, cell-based; conditions: read-out: TI
[23] = tested on: Human immunodeficiency virus 1; assay: Antiviral activity against HIV1 infected in HeLa cells assessed as decrease of singly spliced RNA levels at 5 uM measured after 24 hrs by RT-qPCR method; type: functional, organism-based
[24] = tested on: Human immunodeficiency virus 1; assay: Antiviral activity against HIV1 infected in HeLa cells assessed as decrease of singly spliced RNA levels at 1.25 uM measured after 24 hrs by RT-qPCR method; type: functional, organism-based
HeLa = assay: Cytotoxicity against human HeLa cells infected with HIV1 assessed as cell viability upto 5 uM measured after 24 hrs by plate reader method; type: cell-based
[25] = Therapeutic index, ratio of CC50 for human CEM-GXR cells infected with HIV1 443 harboring reverse transcriptase K103N/D67N/K70R/Y115F/Q151M/M184V/K219Q mutant to EC50 for HIV1 443 harboring reverse transcriptase K103N/D67N/K70R/Y115F/Q151M/M184V/K219Q mutant; type: toxicity; conditions: read-out: TI
[26] = tested on: Human immunodeficiency virus 1; assay: Antiviral activity against HIV1 infected in HeLa cells assessed as decrease of unspliced RNA levels at 5 uM measured after 24 hrs by RT-qPCR method; type: functional, organism-based
[27] = Cytotoxicity against human CEM-GXR cells infected with wild type HIV1 NL4-3 assessed as cell viability measured after 72 hrs by Flow cytometry assay; type: cell-based
[28] = Anti-HIV activity against HIV1 3B infected in human PBMC assessed as inhibition of viral infection measured after 11 days by ELISA method; type: functional, cell-based; conditions: Human immunodeficiency virus 1, 3B, 264 h
[29] = Cytotoxicity against human PBMC cells assessed as cell viability measured after 11 days by Viacount assay; type: cell-based; conditions: time 11 day
[30] = tested on: Human immunodeficiency virus 1; assay: Anti-HIV activity against HIV1 Bal infected in human PBMC assessed as inhibition of viral infection measured after 11 days by ELISA method; type: functional, organism-based; conditions: Human immunodeficiency virus 1, Bal, 264 h
[31] = Cytotoxicity against human CEM-GXR cells infected with wild type HIV1 MVC-res harboring envelope V3 loop A19T/L20F/T22A/E25D/I26V mutant assessed as cell viability measured after 72 hrs by Flow cytometry assay; type: cell-based
[32] = tested on: Human immunodeficiency virus 1; assay: Antiviral activity against HIV1 infected in HeLa cells assessed as decrease of unspliced RNA levels at 1.25 uM measured after 24 hrs by RT-qPCR method; type: functional, organism-based
[33] = Therapeutic index, ratio of CC50 for human CEM-GXR cells infected HIV1 2948 with harboring protease G48V/L90M mutant to EC50 for HIV1 2948 harboring protease G48V/L90M mutant infected in human CEM-GXR cells; type: toxicity, cell-based; conditions: read-out: TI
[34] = Cytotoxicity against human CEM-GXR cells infected with HIV1 NL4-3 assessed as cell viability at 10 uM measured after 72 hrs by Flowcytometry assay; type: cell-based

O=C(Nc1nc2c(Cl)cccc2s1)c1ccc([N+](=O)[O-])s1
EC50 [1]: 5.5 µM
Activity [2]: Active

O=C(Nc1nc2c(Cl)cc(Cl)cc2s1)c1ccc([N+](=O)[O-])s1
Activity [3]: Toxic
Activity [2]: Active

O=[N+]([O-])c1ccc(/C=C/c2ccc3ccccc3n2)s1
EC50 [4]: 0.5 µM

O=C(Nc1nc2ccc(C(F)(F)F)cc2s1)c1cnc(C(F)(F)F)s1
CC50 at 72 h [5]: 12.1 µM
EC50 [6]: 0.24 µM
EC50 [7]: 0.47 µM
EC50 [8]: 0.23 µM
CC50 at 72 h [9]: 12.1 µM
CC50 at 72 h [10]: 12.1 µM
selectivity ratio [11]: 59
EC50 [12]: 0.25 µM
Activity [13]: Active
Activity [14]: Dose-Dependent Effect
CC50 at 72 h [15]: 12.1 µM
selectivity ratio [16]: 68
EC50 [17]: 0.18 µM
selectivity ratio [18]: 49
EC50 [19]: 0.2 µM
Activity [20]: inactive
EC50 [21]: 0.22 µM
selectivity ratio [22]: 56
Activity [23]: inactive
Activity [24]: Active
Activity (HeLa): Toxic
selectivity ratio [25]: 51
Activity [26]: inactive
CC50 at 72 h [27]: 12.1 µM
EC50 [28]: 0.74 µM
CC50 at 264 h [29]: 2.51 µM
EC50 [30]: 0.25 µM
CC50 at 72 h [31]: 12.1 µM
Activity [32]: Active
selectivity ratio [33]: 52

O=C(Nc1cnc2ccccc2c1)c1ccc([N+](=O)[O-])s1
Activity [2]: inactive

Nc1nc(=O)n([C@@H]2CS[C@H](CO)O2)cc1F [EMTRICITABINE]
CC50 at 72 h [5]: > 100 µM
EC50 [12]: 0.03 µM
selectivity ratio [16]: > 3850
EC50 [17]: 0.03 µM
selectivity ratio [18]: > 2940
CC50 at 72 h [27]: > 100 µM
EC50 [28]: 0.0055 µM
CC50 at 264 h [29]: > 10 µM
EC50 [30]: 0.0021 µM

N#Cc1ccc(C(=O)Nc2nc3c(Cl)cccc3s2)s1
EC50 [7]: 3 µM

O=C(Nc1nc2c(Cl)cccc2s1)c1ccc(C(F)(F)F)s1
EC50 [7]: 5.5 µM

Cc1ccc(C(=O)Nc2nc3c(Cl)cccc3s2)s1
Activity [2]: inactive

O=C(Nc1nsc2ccc([N+](=O)[O-])cc12)c1ccc([N+](=O)[O-])s1
Activity [2]: inactive

O=C(Nc1nc2ccc([N+](=O)[O-])cc2s1)c1ccc([N+](=O)[O-])s1
EC50 [1]: 2.4 µM
Activity [2]: Active

O=C(Nc1nc2c(Cl)cccc2s1)c1cnc(C(F)(F)F)s1
CC50 at 72 h [5]: 95.7 µM
EC50 [6]: 1.16 µM
EC50 [7]: 1.66 µM
EC50 [8]: 1.17 µM
CC50 at 72 h [9]: 95.7 µM
CC50 at 72 h [10]: 95.7 µM
selectivity ratio [11]: 101
EC50 [12]: 1.29 µM
CC50 at 72 h [15]: 95.7 µM
selectivity ratio [16]: 100
EC50 [17]: 0.96 µM
selectivity ratio [18]: 74
EC50 [19]: 0.96 µM
EC50 [21]: 0.97 µM
selectivity ratio [22]: 99
Activity [34]: Non-Toxic
selectivity ratio [25]: 83
CC50 at 72 h [27]: 95.7 µM
EC50 [28]: 1.93 µM
CC50 at 264 h [29]: 9.08 µM
EC50 [30]: 0.24 µM
CC50 at 72 h [31]: 95.7 µM
selectivity ratio [33]: 82

O=C(Nc1cccc2cccnc12)c1ccc([N+](=O)[O-])s1
Activity [2]: inactive

O=C(Nc1nc2ccc(C(F)(F)F)cc2s1)c1ccc([N+](=O)[O-])s1
EC50 [1]: 0.5 µM
Activity [2]: Active

O=C(Nc1nc2ccc(Cl)cc2s1)c1ccc([N+](=O)[O-])s1
Activity [3]: Toxic
Activity [2]: Active

O=C(Nc1nc2c(Cl)cccc2s1)c1cccs1
Activity [2]: inactive

O=C(Nc1cccc2ncccc12)c1ccc([N+](=O)[O-])s1
Activity [2]: inactive

O=C(Nc1ccc(C(F)(F)F)cc1)c1ccc([N+](=O)[O-])s1
Activity [14]: inactive

O=C(Nc1nc2cc(Br)ccc2s1)c1ccc([N+](=O)[O-])s1
Activity [3]: Toxic
Activity [2]: Active

O=C(Nc1nc2ccc(OC(F)(F)F)cc2s1)c1ccc([N+](=O)[O-])s1
Activity [3]: Toxic
Activity [2]: Active

O=C(Nc1cncc2ccccc12)c1ccc([N+](=O)[O-])s1
Activity [2]: inactive
